Results as given in patent publication US20080167189A1, “Polymer Compositions and Their Use in the Production of Active or Effective Ingredient Compositions” (Basf Aktiengesellschaft, priority 2005, published 2008).
Values after ≈ are worked out from the molar mass of the structure shown.

Key:
[1] = Solubility of the active compounds in distilled water
physchem = conditions: water

For `COC(=O)N(OC)c1ccccc1COc1ccn(-c2ccc(Cl)cc2)n1` [Pyraclostrobin], the solubility [1] was 2.4 µg/mL (≈ 6.19 µM).
Compound `O=C(Nc1ccccc1-c1ccc(Cl)cc1)c1cccnc1Cl` [Boscalid] has a solubility (physchem) of 4.6 µg/mL (≈ 13.4 µM).
